Values after ≈ are worked out from the molar mass of the structure shown.
Experiments:
[1] = system: VZV strain Ellen; assay: VZV antiviral (ELISA) assay; assay type: cell-based; conditions: Human alphaherpesvirus 3, HFF; for inhibition at 10 µg/mL: read-out: % inhibition 10 ug/ml VZV; for IC50: read-out: IC50 (ug/ml) VZV
Method in brief: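 HFF cells infected with VZV Ellen at multiplicity below 0.1 overnight, then mixed infected/uninfected cells seeded with compound in DMEM/2% FBS and incubated three days at 37°C, 5% CO2.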

[2] = system: HCMV recombinant mutant virus whose genome contains the prokaryotic beta-glucuronidase gene; assay: microbe, parasite or virus in culture; assay type: cell-based, human cytomegalovirus; conditions: Human betaherpesvirus 5, Fibroblast, read-out: IC50 ug/ml HCMV, HCMV, human foreskin fibroblasts
Method in brief: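 Human foreskin fibroblasts infected with HCMV recombinant carrying beta-glucuronidase under a viral promoter (e.g. RV145) in presence of compound. At 96 h post-infection, lysates assayed for beta-glucuronidase by colorimetric or fluorogenic substrate as replication readout; IC50 estimated from varying compound amounts.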

[3] = system: HSV- I; assay: HSV antiviral (ELISA) assay; assay type: cell-based; conditions: HSV- I, Vero cells, ELISA; read-out: IC50 (ug/ml) HSV
Method in brief: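 Vero cells in DMEM with 2% FBS treated with compound 30 min before HSV-1 infection (MOI 0.006), then incubated ~24 h at 37°C. Viral replication measured by ELISA against glycoprotein D with β-galactosidase-linked secondary and fluorogenic substrate (ex 365/em 450 nm); IC50 relative to untreated fluorescence.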

| Compound | inhibition at 10 µg/mL [1] [%] | IC50 [1] [µg/mL] | IC50 [2] [µg/mL] | IC50 [3] [µg/mL] |
| --- | --- | --- | --- | --- |
| Cc1ccc(NC(=S)Nc2ccc(NC(=O)c3c(F)cccc3F)cc2)cc1Cl [Example 235, N-{4-[3-(3-Chloro-4-methyl-phenyl)-thioureido]-phenyl}-2,6-difluoro-benzamide] | 50 | > 10 | > 10 | 0.2 (≈ 0.463 µM) |
| CN(c1ccc(NC(=S)Nc2ccc(NC(=O)c3ccccc3F)cc2)cc1Cl)C1CCCCC1 [Example 238, N-(4-{3-[3-Chloro-4-(cyclohexyl-methyl-amino)-phenyl]-thioureido}-phenyl)-2-fluoro-benzamide] | 38 | > 10 | > 10 | > 10 |
| O=C(Nc1ccc(NC(=S)Nc2ccc(Cl)c(C(F)(F)F)c2)cc1)c1ccccc1F [Example 244, N-{4-[3-(4-Chloro-3-trifluoromethyl-phenyl)-thioureido]-phenyl}-2-fluoro-benzamide] | 18 | > 10 | > 10 | > 10 |
| Cc1ccccc1C(=O)Nc1ccc(NC(=S)Nc2ccc(N(C)C3CCCCC3)c(Cl)c2)cc1 [Example 247, N-(4-{3-[3-Chloro-4-(cyclohexyl-methyl-amino)-phenyl]-thioureido}-phenyl)-2-methyl-benzamide] | 74 | 5 (≈ 9.86 µM) | > 10 | > 10 |
| CN(c1ccc(NC(=S)Nc2ccc(NC(=O)c3c(F)cccc3F)cc2)cc1Cl)C1CCCCC1 [Example 248, N-(4-{3-[3-Chloro-4-(cyclohexyl-methyl-amino)-phenyl]-thioureido}-phenyl)-2,6-difluoro-benzamide] | 96 | 2 (≈ 3.78 µM) | 2 (≈ 3.78 µM) | > 10 |
| COc1cccc(C(=O)Nc2ccc(NC(=S)Nc3ccc(N(C)C4CCCCC4)c(Cl)c3)cc2)c1 [Example 250, N-(4-{3-[3-Chloro-4-(cyclohexyl-methyl-amino)-phenyl]-thioureido}-phenyl)-3-methoxy-benzamide] | 42 | > 10 | > 10 | > 10 |
| COc1cc(OC)c(NC(=S)Nc2ccc(NC(=O)c3cccc(OC(C)=O)c3)cc2)cc1Cl [Example 253, Acetic acid 3-{4-[3-(5-chloro-2,4-dimethoxy-phenyl)-thioureido]-phenyl-carbamoyl}-phenyl ester] | 100 | 6 (≈ 12 µM) | 8 (≈ 16 µM) | 1.2 (≈ 2.4 µM) |
| COc1cc(OC)c(NC(=S)Nc2ccc(NC(=O)c3cccc(O)c3)cc2)cc1Cl [Example 254, N-{4-[3-(5-Chloro-2,4-dimethoxy-phenyl)-thioureido]-phenyl}-3-hydroxy-benzamide] | 110 | 4 (≈ 8.73 µM) | 4 (≈ 8.73 µM) | 0.9 (≈ 1.97 µM) |
| COc1cc(OC)c(NC(=S)Nc2ccc(NC(=O)c3cccc4c3OCO4)cc2)cc1Cl [Example 255, Benzo[1,3]dioxole-4-carboxylic acid {4-[3-(5-chloro-2,4-dimethoxy-phenyl)-thioureido]-phenyl}-amide] | 0 | > 10 | > 10 | 1.2 (≈ 2.47 µM) |
| COc1cc(OC)c(NC(=S)Nc2ccc(NC(=O)c3cccc(OC(F)(F)F)c3)cc2)cc1Cl [Example 256, N-{4-[3-(5-Chloro-2,4-dimethoxy-phenyl)-thioureido]-phenyl}-3-trifluoro-methoxy-benzamide] | 15 | > 10 | 9 (≈ 17.1 µM) | 2 (≈ 3.8 µM) |
| COc1cc(OC)c(NC(=S)Nc2ccc(NC(=O)c3cccc(OCCN(C)C)c3)cc2)cc1Cl [Example 257, N-{4-[3-(5-Chloro-2,4-dimethoxy-phenyl)-thioureido]-phenyl}-3-(2-dimethylamino-ethoxy)-benzamide] | 105 | 2.5 (≈ 4.73 µM) | 7 (≈ 13.2 µM) | 2.5 (≈ 4.73 µM) |
| COc1cc(OC)c(NC(=S)Nc2ccc(NC(=O)c3cccc(OCCN4CCOCC4)c3)cc2)cc1Cl [Example 258, N-{4-[3-(5-Chloro-2,4-dimethoxy-phenyl)-thioureido]-phenyl}-3-(2-morpholin-4-yl-ethoxy)-benzamide] | 92 | 1.5 (≈ 2.63 µM) | 5 (≈ 8.76 µM) | 1.5 (≈ 2.63 µM) |
| COc1cc(OC)c(NC(=S)Nc2ccc(NC(=O)c3ccccc3F)c(Cl)c2)cc1Cl [Example 278, N-{2-Chloro-4-[3-(5-chloro-2,4-dimethoxy-phenyl)-thioureido]-phenyl}-2-fluoro-benzamide] | 15 | > 10 | > 10 | > 10 |
| COc1cc(OC)c(NC(=S)Nc2ccc(NC(=O)c3ccccc3F)c(C(=O)c3ccccc3)c2)cc1Cl [Example 293, N-{2-Benzoyl-4-[3-(5-chloro-2,4-dimethoxy-phenyl)-thioureido]-phenyl}-2-fluoro-benzamide] | 2 | > 10 | > 10 | > 50 |
| CN1CCC(N(C)c2ccc(NC(=S)Nc3ccc(NC(=O)c4ccccc4F)cc3)cc2Cl)C1 (centres unmarked) [Example 332, N-[4-(3-{3-Chloro-4-[methyl-(1-methyl-pyrrolidin-3-yl)-amino]-phenyl}-thioureido)-phenyl]-2-fluoro-benzamide] | 90 | 8 (≈ 15.6 µM) | 0.9 (≈ 1.76 µM) | 1 (≈ 1.95 µM) |
| COc1cc(C)c(Cl)cc1NC(=S)Nc1ccc(NC(=O)c2c(F)cccc2F)cc1 [Example 333, N-{4-[3-(5-Chloro-2-methoxy-4-methyl-phenyl)-thioureido]-phenyl}-2,6-difluoro-benzamide] | 92 | 4.5 (≈ 9.74 µM) | 2.5 (≈ 5.41 µM) | 0.04 (≈ 0.0866 µM) |
| CN1CCC(N(C)c2ccc(NC(=S)Nc3ccc(NC(=O)c4c(F)cccc4F)cc3)cc2Cl)CC1 [Example 340, N-[4-(3-{3-Chloro-4-[methyl-(1-methyl-piperidin-4-yl)-amino]-phenyl}-thioureido)-phenyl]-2,6-difluoro-benzamide] | 99 | 4 (≈ 7.35 µM) | 0.25 (≈ 0.459 µM) | 3 (≈ 5.51 µM) |
| CSc1ccc(NC(=S)Nc2ccc(NC(=O)c3ccccc3C)cc2)cc1Cl [Example 342, N-{4-[3-(3-Chloro-4-methylsulfanyl-phenyl)-thioureido]-phenyl}-2-methyl-benzamide] | 62 | > 10 | 1.4 (≈ 3.17 µM) | 0.2 (≈ 0.452 µM) |
| Cc1ccccc1C(=O)Nc1ccc(NC(=S)Nc2ccc(N(C)C)c(Cl)c2)cc1 [Example 346, N-{4-[3-(3-Chloro-4-dimethylamino-phenyl)-thioureido]-phenyl}-2-methyl-benzamide] | 62 | > 10 | 2 (≈ 4.56 µM) | 6 (≈ 13.7 µM) |
| CN(C)c1ccc(NC(=S)Nc2ccc(NC(=O)c3c(F)cccc3F)cc2)cc1Cl [Example 348, N-{4-[3-(3-Chloro-4-dimethylamino-phenyl)-thioureido]-phenyl}-2,6-difluoro-benzamide] | 95 | 8 (≈ 17.4 µM) | 0.8 (≈ 1.74 µM) | 4 (≈ 8.68 µM) |
| CN1CCC(N(C)c2ccc(NC(=S)Nc3ccc(NC(=O)c4c(F)cccc4F)cc3)cc2Cl)C1 (centres unmarked) [Example 349, N-[4-(3-{3-Chloro-4-[methyl-(1-methyl-pyrrolidin-3-yl)-amino]-phenyl}-thioureido)-phenyl]-2,6-difluoro-benzamide] | 110 | 4 (≈ 7.55 µM) | 1.2 (≈ 2.26 µM) | 5 (≈ 9.43 µM) |
| COc1cc(OC)c(NC(=S)Nc2ccc(NC(=O)c3ccccc3F)cc2Cl)cc1Cl [Example 355, N-{3-Chloro-4-[3-(5-chloro-2,4-dimethoxy-phenyl)-thioureido]-phenyl}-2-fluoro-benzamide] | 40 | > 10 | > 10 | 0.035 (≈ 0.0708 µM) |
| O=C(Nc1ccc(NC(=S)Nc2ccc(SC3CCCCC3)c(Cl)c2)cc1)c1ccccc1F [Example 357, N-{4-[3-(3-Chloro-4-cyclohexylsulfanyl-phenyl)-thioureido]-phenyl}-2-fluoro-benzamide] | 44 | 40 (≈ 77.8 µM) | 9 (≈ 17.5 µM) | > 10 |
| CN(C)CC(=O)Nc1ccc(NC(=S)Nc2ccc(NC(=O)c3ccccc3F)cc2)cc1Cl [Example 362, N-(4-{3-[3-Chloro-4-(2-dimethylamino-acetylamino)-phenyl]-thioureido}-phenyl)-2-fluoro-benzamide] | 8 | > 10 | > 10 | > 10 |
| O=C(CN1CCCCC1)Nc1ccc(NC(=S)Nc2ccc(NC(=O)c3ccccc3F)cc2)cc1Cl [Example 364, N-(4-{3-[3-Chloro-4-(2-piperidin-1-yl-acetylamino)-phenyl]-thioureido}-phenyl)-2-fluoro-benzamide] | 73 | > 15 | > 10 | > 10 |
| O=C(CN1CCOCC1)Nc1ccc(NC(=S)Nc2ccc(NC(=O)c3ccccc3F)cc2)cc1Cl [Example 367, N-(4-{3-[3-Chloro-4-(2-morpholin-4-yl-acetylamino)-phenyl]-thioureido}-phenyl)-2-fluoro-benzamide] | 20 | > 10 | > 10 | > 10 |
